# Test system: J82 cells
# Assay: Cellular proliferation assay (CCK8) in J82 cells, combined with Mitomycin C or valrubicin
# Format: cell-based, human
# Conditions: for Combination Index (CI) / relative proliferation proportion of cells: J82 cells
# Procedure: J82 cells were transfected with RAG1-40-31 at concentrations of 0.1, 0.5, 1, 5, 10, 25 and 50 nM for 24 hours, and then Mitomycin C at concentrations of 1, 10, 100, 1000 and 10000 nM was added. The combined treatment was carried out with concentrations in pairs. After treatment, the proliferation of cells was detected using CCK8 kit. FIGS. 14A-14B show the relative proliferation proportion of J82 cells after the combined treatment with chemically modified saRNA RAG1-40-31 and valrubicin. […] Control and DMSO are the blank transfection control and the solvent for dilution control, respectively.
# J82 cells were transfected with RAG1-40-31 at concentrations of 0.1, 0.5, 1, 5, 10, 25 and 50 nM for 24 hours, and then valrubicin at concentrations of 1, 10, 100, 1000 and 10000 nM was added. The combined treatment was carried out with concentrations in pairs. After treatment, the cellular proliferation was detected by CCK8 kit. FIGS. 15A-15B show the relative proliferation proportion of T24 cells after the combined treatment with chemically modified saRNA RAG1-40-31 and Mitomycin C. […] Control and DMSO are the blank transfection control and the solvent for dilution control, respectively.
# Human bladder cancer cells Ku-7-LG (ATCC), J82 (ATCC) and T24 (ATCC) were cultured in McCoy medium (Gibco) comprising 10% calf serum (Sigma-Aldrich) and 1% penicillin/Streptomycin (Gibco). Cells were cultured at 37° C. under 5% CO2. Ku-7-LG, J82 and T24 cells were plated into 12-well plates at 10×10^4 cells per well, transfected with the small RNA at a concentration of 10 nM (unless otherwise specified) for three days, using RNAiMax (Invitrogen, Carlsbad, CA) according to the manufacturer's instructions. Two replicate wells were set for each treatment.
# Cells were plated in a 96-well plate at 2˜4×10^3 cells/well, cultured overnight, and transfected with the oligonucleotide duplexes. Three days after transfection, CCK8 (Dojindo) was used to detect cellular proliferation following manufacturer's instructions. The experimental steps are briefly described as follows: 10 μL of CCK8 solution was added to each well, incubated at 37° C. for 1 hour, and then the absorbance at 450 nm was measured using a microplate reader.
# In this example, chemically modified saRNA RAG1-40-31 was used in combination with clinical chemical agents to evaluate the suppressing effect of the combined agents on cancer cells.
# [1] = RAG1-40-31 0.1 nM + MMC 1000 nM
substance,measurement,setting,value
"RAG1-40-31: saRNA duplex: sense fCfCAACUCAUUCUCCAAG*U*C (SEQ ID NO 16); antisense U*A*fCfUfUGGAGAAfUGAGfUfUGG*fC*A (SEQ ID NO 12) (sense CCAACUCAUUCUCCAAGUC; antisense UACUUGGAGAAUGAGUUGGCA; 2'-F and phosphorothioate modifications; modified_base (1)..(2) (1,2)=2′-fluoro; modified_base (17)..(19) (17,18,19)=phosphorothioate (PS) backbone modification; modified_base (2)..(21) (2,3,19,20,21)=phosphorothioate (PS) backbone modification; modified_base (3)..(20) (3,4,5,12,16,17,20)=2′-fluoro)",Combination Index (CI),RAG1-40-31 0.1 nM + MMC 1 nM,0.08
same,Combination Index (CI),RAG1-40-31 0.1 nM + MMC 10 nM,0.42
same,Combination Index (CI),RAG1-40-31 0.1 nM + MMC 100 nM,0.47
same,Combination Index (CI),[1],0.73
same,Combination Index (CI),RAG1-40-31 0.1 nM + MMC 10000 nM,0.50
same,Combination Index (CI),RAG1-40-31 0.1 nM + valrubicin 1 nM,0.10
same,Combination Index (CI),RAG1-40-31 0.1 nM + valrubicin 10 nM,0.42
same,Combination Index (CI),RAG1-40-31 0.1 nM + valrubicin 100 nM,0.85
same,Combination Index (CI),RAG1-40-31 0.1 nM + valrubicin 1000 nM,0.18
same,Combination Index (CI),RAG1-40-31 0.1 nM + valrubicin 10000 nM,0.19
same,Combination Index (CI),RAG1-40-31 0.5 nM + MMC 1 nM,0.17
same,Combination Index (CI),RAG1-40-31 0.5 nM + MMC 10 nM,0.47
same,Combination Index (CI),RAG1-40-31 0.5 nM + MMC 100 nM,0.54
same,Combination Index (CI),RAG1-40-31 0.5 nM + MMC 1000 nM,0.75
same,Combination Index (CI),RAG1-40-31 0.5 nM + MMC 10000 nM,0.25
same,Combination Index (CI),RAG1-40-31 0.5 nM + valrubicin 1 nM,0.18
same,Combination Index (CI),RAG1-40-31 0.5 nM + valrubicin 10 nM,0.08
same,Combination Index (CI),RAG1-40-31 0.5 nM + valrubicin 100 nM,1.31
same,Combination Index (CI),RAG1-40-31 0.5 nM + valrubicin 1000 nM,0.14
same,Combination Index (CI),RAG1-40-31 0.5 nM + valrubicin 10000 nM,0.11
same,Combination Index (CI),RAG1-40-31 1 nM + MMC 1 nM,0.13
same,Combination Index (CI),RAG1-40-31 1 nM + MMC 10 nM,0.58
same,Combination Index (CI),RAG1-40-31 1 nM + MMC 100 nM,0.52
same,Combination Index (CI),RAG1-40-31 1 nM + MMC 1000 nM,0.76
same,Combination Index (CI),RAG1-40-31 1 nM + MMC 10000 nM,0.46
same,Combination Index (CI),RAG1-40-31 1 nM + valrubicin 1 nM,0.26
same,Combination Index (CI),RAG1-40-31 1 nM + valrubicin 10 nM,0.12
same,Combination Index (CI),RAG1-40-31 1 nM + valrubicin 100 nM,0.30
same,Combination Index (CI),RAG1-40-31 1 nM + valrubicin 1000 nM,0.12
same,Combination Index (CI),RAG1-40-31 1 nM + valrubicin 10000 nM,0.11
same,Combination Index (CI),RAG1-40-31 5 nM + MMC 1 nM,0.29
same,Combination Index (CI),RAG1-40-31 5 nM + MMC 10 nM,0.32
same,Combination Index (CI),RAG1-40-31 5 nM + MMC 100 nM,0.40
same,Combination Index (CI),RAG1-40-31 5 nM + MMC 1000 nM,0.43
same,Combination Index (CI),RAG1-40-31 5 nM + MMC 10000 nM,0.41
same,Combination Index (CI),RAG1-40-31 5 nM + valrubicin 1 nM,0.12
same,Combination Index (CI),RAG1-40-31 5 nM + valrubicin 10 nM,0.32
same,Combination Index (CI),RAG1-40-31 5 nM + valrubicin 100 nM,0.61
same,Combination Index (CI),RAG1-40-31 5 nM + valrubicin 1000 nM,0.13
same,Combination Index (CI),RAG1-40-31 5 nM + valrubicin 10000 nM,0.06
same,Combination Index (CI),RAG1-40-31 10 nM + MMC 1 nM,0.40
same,Combination Index (CI),RAG1-40-31 10 nM + MMC 10 nM,0.47
same,Combination Index (CI),RAG1-40-31 10 nM + MMC 100 nM,0.37
same,Combination Index (CI),RAG1-40-31 10 nM + MMC 1000 nM,0.41
same,Combination Index (CI),RAG1-40-31 10 nM + MMC 10000 nM,0.29
same,Combination Index (CI),RAG1-40-31 10 nM + valrubicin 1 nM,0.14
same,Combination Index (CI),RAG1-40-31 10 nM + valrubicin 10 nM,0.22
same,Combination Index (CI),RAG1-40-31 10 nM + valrubicin 100 nM,0.37
same,Combination Index (CI),RAG1-40-31 10 nM + valrubicin 1000 nM,0.11
same,Combination Index (CI),RAG1-40-31 10 nM + valrubicin 10000 nM,0.04
same,Combination Index (CI),RAG1-40-31 25 nM + MMC 1 nM,0.32
same,Combination Index (CI),RAG1-40-31 25 nM + MMC 10 nM,0.50
same,Combination Index (CI),RAG1-40-31 25 nM + MMC 100 nM,0.37
same,Combination Index (CI),RAG1-40-31 25 nM + MMC 1000 nM,0.28
same,Combination Index (CI),RAG1-40-31 25 nM + MMC 10000 nM,0.09
same,Combination Index (CI),RAG1-40-31 25 nM + valrubicin 1 nM,0.14
same,Combination Index (CI),RAG1-40-31 25 nM + valrubicin 10 nM,0.10
same,Combination Index (CI),RAG1-40-31 25 nM + valrubicin 100 nM,0.16
same,Combination Index (CI),RAG1-40-31 25 nM + valrubicin 1000 nM,0.05
same,Combination Index (CI),RAG1-40-31 25 nM + valrubicin 10000 nM,0.02
same,relative proliferation proportion of cells,"RAG1-40-31 25 nM and 50 nM + Mitomycin C 1, 10, 100, 1000 and 10000 nM",lower than 26%
same,relative proliferation proportion of cells,"RAG1-40-31 25 nM and 50 nM + Valrubicin 1, 10, 100, 1000 and 10000 nM",lower than 30%
same,Combination Index (CI),RAG1-40-31 50 nM + MMC 1 nM,0.96
same,Combination Index (CI),RAG1-40-31 50 nM + MMC 10 nM,0.98
same,Combination Index (CI),RAG1-40-31 50 nM + MMC 100 nM,0.44
same,Combination Index (CI),RAG1-40-31 50 nM + MMC 1000 nM,0.19
same,Combination Index (CI),RAG1-40-31 50 nM + MMC 10000 nM,0.15
same,Combination Index (CI),RAG1-40-31 50 nM + valrubicin 1 nM,0.11
same,Combination Index (CI),RAG1-40-31 50 nM + valrubicin 10 nM,0.14
same,Combination Index (CI),RAG1-40-31 50 nM + valrubicin 100 nM,0.22
same,Combination Index (CI),RAG1-40-31 50 nM + valrubicin 1000 nM,0.09
same,Combination Index (CI),RAG1-40-31 50 nM + valrubicin 10000 nM,0.02
same,relative proliferation proportion of cells,"RAG1-40-31 0.1-50 nM + Mitomycin C 100, 1000 and 10000 nM",lower than 35%
same,relative proliferation proportion of cells,RAG1-40-31 0.1-50 nM + Valrubicin 1000 nM and 10000 nM,lower than 30%
same,relative proliferation proportion of cells,"RAG1-40-31 5-50 nM + Mitomycin C 1, 10, 100, 1000 and 10000 nM",lower than 43%
same,"effect of combined use with Mitomycin C or valrubicin, in words",J82 tumor cells,synergistic effect
same,Relative proliferation proportion of J82 cells,RAG1-40-31 0.1 nM + MMC 1 nM,74.3%
same,Relative proliferation proportion of J82 cells,RAG1-40-31 0.1 nM + MMC 10 nM,71.5%
same,Relative proliferation proportion of J82 cells,RAG1-40-31 0.1 nM + MMC 100 nM,32.9%
same,Relative proliferation proportion of J82 cells,[1],10.8%
